From patent US20250073189A1, “NATURAL DIETARY SUPPLEMENT FOR MENTAL HEALTH” (Mind Pop LLC, priority 2023, published 2025)

How the values were obtained:
[1] = Inventors' unspecified tests and research on single ingredients of the supplement; type: in vivo
Description: Caffeine is far and away the most widely known compound in the composition, however, the present invention uses the caffeine as a clean source of energy to go along with methylliberine and theacrine.

[2] = Inventors' dose testing of theacrine (50-400 mg); type: in vivo; conditions: according to research and trials; unlike caffeine
Description: Theacrine advances the beneficial effects of the compounds of this invention in unexpected ways. […] Throughout the studies pertaining to this invention, it has been discovered that low blood pressure is paramount for the proper firing of synapses and proper chemical balance in the brain. Testing in doses from 50-400 mg of theacrine have narrowed the optimum range to 125-150 mg, and more particularly about 140 mg. […] This is made possible by the waste removal from phosphatidylserine and enhanced by alpha-glycerylphosphorylcholine which spreads these effects beyond the brain, throughout the entire body.

C[N+](C)(C)CCOP(=O)([O-])OC[C@H](O)CO [alpha-glycerylphosphorylcholine, Alpha-glycerylphosphorylcholine]
effect on muscular output and reaction times ([1]; many tests and much research): increase muscular output and reaction times

Cn1c(=O)c2c(ncn2C)n(C)c1=O [Caffeine, reference compound]
cognitive effects ([1]; 70 mg of caffeine): tremendous cognitive effects

Phosphatidylserine
effectiveness as supplementary ingredient (membrane functions, nutrient entry, cortisol modulation, waste exit) ([1]; in vivo): unexpectedly effective

COc1nc2c(c(=O)n1C)n(C)c(=O)n2C [Methylliberine]
energy boost in combination with the other ingredients ([1]; at precisely 140 mg, with caffeine and theacrine): unexpected energy boost

Cn1c(=O)c2c(n(C)c1=O)n(C)c(=O)n2C [Theacrine]
effect on blood pressure [2]: does not seem to significantly affect blood pressure
